According to patent US11524966B1 (Valo Early Discovery, Inc., priority 2017, dated 2022):

These compounds were tested against T1, USP25 (USP25-His6, Boston Biochem E-546) (Homo sapiens, UniProt Q9UHP3) (assay: Ubiquitin-Rhodamine 110 Assay for USP25 Activity, Example A-2). Conditions: Ubiquitin-Rhodamine 110 assay, Example A-2; read-out: USP25 A-2 IC50 range.
T1 construct: His6; purchased Boston Biochem E-546
T1 sequence (Q9UHP3 1-1055): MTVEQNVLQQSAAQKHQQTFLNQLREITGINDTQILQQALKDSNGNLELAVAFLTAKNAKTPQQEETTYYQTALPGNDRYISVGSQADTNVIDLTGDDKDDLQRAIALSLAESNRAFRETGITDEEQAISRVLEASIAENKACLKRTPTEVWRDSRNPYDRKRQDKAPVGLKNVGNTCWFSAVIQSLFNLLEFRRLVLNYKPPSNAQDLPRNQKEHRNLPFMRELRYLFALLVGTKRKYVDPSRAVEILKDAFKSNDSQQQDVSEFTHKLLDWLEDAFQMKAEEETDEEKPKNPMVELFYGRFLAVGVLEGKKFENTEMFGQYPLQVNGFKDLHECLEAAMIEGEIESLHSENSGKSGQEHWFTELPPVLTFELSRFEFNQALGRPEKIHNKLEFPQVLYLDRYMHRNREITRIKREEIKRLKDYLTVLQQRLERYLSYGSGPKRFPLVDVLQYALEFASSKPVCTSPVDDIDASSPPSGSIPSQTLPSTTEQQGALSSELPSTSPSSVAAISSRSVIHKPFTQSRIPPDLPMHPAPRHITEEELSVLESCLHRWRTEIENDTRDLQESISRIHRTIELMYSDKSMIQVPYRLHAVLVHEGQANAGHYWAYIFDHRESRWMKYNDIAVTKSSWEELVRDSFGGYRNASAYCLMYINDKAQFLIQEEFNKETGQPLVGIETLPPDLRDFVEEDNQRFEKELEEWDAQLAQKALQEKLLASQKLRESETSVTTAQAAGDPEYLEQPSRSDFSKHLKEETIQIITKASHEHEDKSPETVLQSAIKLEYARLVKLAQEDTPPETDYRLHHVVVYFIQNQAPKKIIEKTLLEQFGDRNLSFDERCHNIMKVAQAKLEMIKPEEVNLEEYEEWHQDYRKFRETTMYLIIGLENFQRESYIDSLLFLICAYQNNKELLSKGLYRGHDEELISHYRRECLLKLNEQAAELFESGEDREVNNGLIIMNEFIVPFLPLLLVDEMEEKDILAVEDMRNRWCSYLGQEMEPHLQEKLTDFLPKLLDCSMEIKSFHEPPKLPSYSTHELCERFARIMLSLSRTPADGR
Type: biochemical
Outline: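 Cleavage of ubiquitin-rhodamine 110 (25 nM, well below Km) by His-tagged USP25 at 75 pM is measured fluorimetrically after 45 min at room temperature and acid quench. Inhibitors are preincubated with enzyme for 30 minutes. IC50 values come from four-parameter logistic curve fitting.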

**Q.** How did the IC50 turn out when `O=C(N[C@H]1COc2cc(N3CCNCC3)ccc2C1)c1ccc(NCc2ccccn2)nc1` [Example 470, (R)-N-(7-(piperazin-1-yl)chroman-3-yl)-6-((pyridin-2-ylmethyl)amino)nicotinamide] was run?
**A.** > 2000 nM

**Q.** How did the IC50 turn out when `O=C(N[C@@H]1CCc2c(c(F)cc(N3CC4CCC(C3)N4)c2C(F)F)C1)c1cnc2c(c1)[C@@H]1C[C@@H]1CN2` (single isomer, unassigned) [Example 361] was run?
**A.** > 2000 nM

**Q.** How did the IC50 turn out when `Cc1ccc2c(N)c(C(=O)N[C@H]3COc4cc(N5C[C@H](N)CC56COC6)ccc4C3)sc2n1` (single isomer, unassigned) [Example 351] was run?
**A.** 1 to 50 nM

**Q.** How did the IC50 turn out when `Cc1cnc2c(N)c(C(=O)N[C@H]3CCc4cc(N5CC(C(=O)O)C5)ccc4C3)sc2n1` [Example 6-4, (S)-1-(6-(7-amino-3-methylthieno[2,3-b]pyrazine-6-carboxamido)-5,6,7,8-tetrahydronaphthalen-2-yl)azetidine-3-carboxylic acid] was run?
**A.** > 2000 nM

**Q.** For `CC(=O)N1CCCc2cc(C(=O)N[C@H]3COc4cc(N5CCNCC5)ccc4C3)ccc21` [Example 459, (R)-1-acetyl-N-(7-(piperazin-1-yl)chroman-3-yl)-1,2,3,4-tetrahydroquinoline-6-carboxamide], which IC50 is on record?
**A.** > 2000 nM

**Q.** For `Cc1ccc2c(N)c(C(=O)N[C@H]3COc4cc(N5CC6CNC[C@@](C)(C5)O6)cc(F)c4C3)sc2n1` [Example 414, 3-amino-N-[(3R)-5-fluoro-7-[(1S)-1-methyl-9-oxa-3,7-diazabicyclo[3.3.1]nonan-3-yl]-3,4-dihydro-2H-1-benzopyran-3-yl]-6-methylthieno[2,3-b]pyridine-2-carboxamide], which IC50 is on record?
**A.** 200 to 2000 nM

**Q.** With `Cc1ccc2c(N)c(C(=O)N[C@H]3CCc4nc(N5C[C@@H](N)[C@@]6(CCCO6)C5)ccc4C3)sc2n1` [Example 392, 3-amino-N-[(6S)-2-[(5R,9R)-9-amino-1-oxa-7-azaspiro[4.4]nonan-7-yl]-5,6,7,8-tetrahydroquinolin-6-yl]-6-methylthieno[2,3-b]pyridine-2-carboxamide] as the compound, how does the IC50 read?
**A.** > 2000 nM

**Q.** With `O=C(N[C@H]1COc2cc(N3CC4CCC(C3)N4)ccc2C1)c1cnc2c(c1)[C@@H]1C[C@@H]1CN2` [Example 3-15, (1aS,7bR)-N-((3R)-7-(3,8-diazabicyclo[3.2.l]octan-3-yl)chroman-3-yl)-1a,2,3,7b-tetrahydro-1H-cyclopropa[c][1,8]naphthyridine-6-carboxamide] as the compound, how does the IC50 read?
**A.** 50 to 200 nM

**Q.** Which IC50 does the source give for `O=C(N[C@H]1CCc2c(c(F)cc(N3CC4CCC(C3)N4)c2C(F)F)C1)c1cnc2c(c1)[C@H]1C[C@H]1CN2` (single isomer, unassigned) [Example 360] here?
**A.** 200 to 2000 nM

**Q.** For `Cc1ccc2c(N)c(C(=O)N[C@H]3CCc4cc(N5CCNCC5)c(F)c(F)c4C3)sc2n1` [Example 417, 3-amino-N-[(2S)-7,8-difluoro-6-(piperazin-1-yl)-1,2,3,4-tetrahydronaphthalen-2-yl]-6-methylthieno[2,3-b]pyridine-2-carboxamide], which IC50 is on record?
**A.** > 2000 nM

**Q.** `Cc1ccc2c(N)c(C(=O)N[C@H]3COc4cc(N5CC[C@@H](C(=O)O)C5)ccc4C3)sc2n1` [Example 6-2, (R)-1-((R)-3-(3-amino-6-methylthieno[2,3-b]pyridine-2-carboxamido)chroman-7-yl)pyrrolidine-3-carboxylic acid] was tested. Which IC50 did it give?
**A.** > 2000 nM

**Q.** How did the IC50 turn out when `Cc1ccc2c(N)c(C(=O)N[C@@H]3COc4c(cc(F)c(N5CCNCC5)c4F)C3)sc2n1` (single isomer, unassigned) [Example 3-18] was run?
**A.** > 2000 nM

**Q.** How did the IC50 turn out when `O=C(N[C@H]1CCc2c(c(F)cc(N3CC4CCC(C3)N4)c2C(F)F)C1)c1cnc2c(c1)[C@@H]1C[C@@H]1CN2` (single isomer, unassigned) [Example 359] was run?
**A.** > 2000 nM

**Q.** How did the IC50 turn out when `Cc1ccc2c(N)c(C(=O)N[C@H]3CCc4nc(N5C[C@@H](N)[C@@H](OC(C)(F)F)C5)ccc4C3)sc2n1` [Example 358, 3-amino-N-[(6S)-2-[(3R,4S)-3-amino-4-(1,1-difluoroethoxy)pyrrolidin-1-yl]-5,6,7,8-tetrahydroquinolin-6-yl]-6-methylthieno[2,3-b]pyridine-2-carboxamide] was run?
**A.** > 2000 nM

**Q.** `CC(=O)Nc1cccc(CNc2ccc(C(=O)N[C@H]3COc4cc(N5CCNCC5)ccc4C3)cn2)c1` [Example 473, (R)-6-((3-acetamidobenzyl)amino)-N-(7-(piperazin-1-yl)chroman-3-yl)nicotinamide] was tested. Which IC50 did it give?
**A.** > 2000 nM

**Q.** `CO[C@@H]1CN(c2cc3c(c(F)c2F)C[C@@H](NC(=O)c2sc4nc(C)ccc4c2N)CO3)C[C@H]1N` [Example 415, 3-amino-N-[(3R)-7-[(3R,4R)-3-amino-4-methoxypyrrolidin-1-yl]-5,6-difluoro-3,4-dihydro-2H-1-benzopyran-3-yl]-6-methylthieno[2,3-b]pyridine-2-carboxamide] was tested. Which IC50 did it give?
**A.** 200 to 2000 nM

**Q.** With `CN[C@H]1CN(c2ccc3c(c2)OC[C@H](NC(=O)c2sc4nc(C)ccc4c2N)C3)C[C@@H]1O` [Example 350, 3-amino-N-[(3R)-7-[(3S,4S)-3-hydroxy-4-(methylamino)pyrrolidin-1-yl]-3,4-dihydro-2H-1-benzopyran-3-yl]-6-methylthieno[2,3-b]pyridine-2-carboxamide] as the compound, how does the IC50 read?
**A.** 200 to 2000 nM

**Q.** For `Cc1ccc2c(N)c(C(=O)N[C@H]3CCc4nc(N5C[C@H](N)[C@H](OC(C)(F)F)C5)ccc4C3)sc2n1` [Example 357, 3-amino-N-[(6S)-2-[(3S,4R)-3-amino-4-(1,1-difluoroethoxy)pyrrolidin-1-yl]-5,6,7,8-tetrahydroquinolin-6-yl]-6-methylthieno[2,3-b]pyridine-2-carboxamide], which IC50 is on record?
**A.** 200 to 2000 nM

**Q.** With `Cc1ccc2c(N)c(C(=O)N[C@H]3COc4cc(N5C[C@H](N)[C@@H](F)C5)ccc4C3)sc2n1` [Example 3-7, 3-amino-N-((R)-7-((3S,4S)-3-amino-4-fluoropyrrolidin-1-yl)chroman-3-yl)-6-methylthieno[2,3-b]pyridine-2-carboxamide] as the compound, how does the IC50 read?
**A.** 200 to 2000 nM

**Q.** For `O=C(N[C@H]1COc2cc(N3CCNCC3)ccc2C1)c1ccc(NCc2cccnc2)nc1` [Example 468, (R)-N-(7-(piperazin-1-yl)chroman-3-yl)-6-((pyridin-3-ylmethyl)amino)nicotinamide], which IC50 is on record?
**A.** > 2000 nM

**Q.** How did the IC50 turn out when `Cc1ccc2c(N)c(C(=O)N[C@H]3COc4cc(N5CC(O)(C(F)(F)F)C5)ccc4C3)sc2n1` [Example 5-3, (R)-3-amino-N-(7-(3-hydroxy-3-(trifluoromethyl)azetidin-1-yl)chroman-3-yl)-6-methylthieno[2,3-b]pyridine-2-carboxamide] was run?
**A.** 200 to 2000 nM

**Q.** Which IC50 does the source give for `Cc1ccc2c(N)c(C(=O)N[C@H]3COc4cc(N5CC[C@H](C(=O)O)C5)ccc4C3)sc2n1` [Example 6-3, (S)-1-((R)-3-(3-amino-6-methylthieno[2,3-b]pyridine-2-carboxamido)chroman-7-yl)pyrrolidine-3-carboxylic acid] here?
**A.** > 2000 nM

**Q.** Which IC50 does the source give for `Cc1ccc2c(N)c(C(=O)N[C@H]3CCc4nc(N5C[C@H](N)[C@@H](C(F)(F)F)C5)ccc4C3)sc2n1` [Example 363, 3-amino-N-[(6S)-2-[(3R,4S)-3-amino-4-(trifluoromethyl)pyrrolidin-1-yl]-5,6,7,8-tetrahydroquinolin-6-yl]-6-methylthieno[2,3-b]pyridine-2-carboxamide] here?
**A.** 200 to 2000 nM

**Q.** How did the IC50 turn out when `Cc1ccc2c(N)c(C(=O)N[C@H]3COc4cc(N5CCC(O)CC5)ccc4C3)sc2n1` [Example 7-1, (R)-3-amino-N-(7-(4-hydroxypiperidin-1-yl)chroman-3-yl)-6-methylthieno[2,3-b]pyridine-2-carboxamide] was run?
**A.** 200 to 2000 nM

**Q.** `Cc1ccc2c(N)c(C(=O)N[C@H]3CCc4nc(N5C[C@H](C(F)F)[C@@H](N)C5)ccc4C3)sc2n1` [Example 347, 3-amino-N-[(6S)-2-[(3R,4S)-3-amino-4-(difluoromethyl)pyrrolidin-1-yl]-5,6,7,8-tetrahydroquinolin-6-yl]-6-methylthieno[2,3-b]pyridine-2-carboxamide] was tested. Which IC50 did it give?
**A.** 200 to 2000 nM

**Q.** With `O=C(N[C@H]1COc2cc(N3CCNCC3)ccc2C1)c1cn2nc(Cl)ccc2n1` [Example 464, (R)-6-chloro-N-(7-(piperazin-1-yl)chroman-3-yl)imidazo[1,2-b]pyridazine-2-carboxamide] as the compound, how does the IC50 read?
**A.** > 2000 nM

**Q.** How did the IC50 turn out when `Cc1ccc2c(N)c(C(=O)N[C@H]3COc4cc(N5CCC[C@](C)(O)C5)ccc4C3)sc2n1` [Example 7-2] was run?
**A.** 200 to 2000 nM

**Q.** Which IC50 does the source give for `O=C(N[C@H]1COc2cc(N3CCNCC3)ccc2C1)c1cnn2cccnc12` [Example 466, (R)-N-(7-(piperazin-1-yl)chroman-3-yl)pyrazolo[1,5-a]pyrimidine-3-carboxamide] here?
**A.** > 2000 nM
